The test concerns the target MT1-MMP (Homo sapiens, UniProt P50281). As to the kind of experiment: FRET triple-helical peptide. The test is classed as biochemical.

With `CNC(=O)[C@@H](NC(=O)[C@H](CC(C)C)[C@H](O)C(=O)NO)C(C)(C)C` [marimastat], 19 ± 3 nM corresponded to half-maximal inhibition (IC50).

The values are drawn from paper PMC6536371 (Chemical biology & drug design, 2018).
